The subject of one assay is A549. Description: MTS cell viability assay. It is filed as cell-based. Conditions: Homo sapiens, A549, 72 h, read-out: MTS NCI A549 GI50. Put shortly: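 A549 and a second human cancer line seeded in DMEM/10% FBS, allowed 16–24 h to attach, then exposed 72 h at 37 °C, 5% CO2 to serially diluted compound (final DMSO 0.33%). Viability measured by MTS.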
For orientation: Tetrazolium assays rely on reduction of a dye to a coloured formazan, in cell work by metabolically active cells.

The target of the next assay is T1, HsEg5 (Homo sapiens, UniProt P52732).
T1 sequence (P52732 18-359 limits assumed): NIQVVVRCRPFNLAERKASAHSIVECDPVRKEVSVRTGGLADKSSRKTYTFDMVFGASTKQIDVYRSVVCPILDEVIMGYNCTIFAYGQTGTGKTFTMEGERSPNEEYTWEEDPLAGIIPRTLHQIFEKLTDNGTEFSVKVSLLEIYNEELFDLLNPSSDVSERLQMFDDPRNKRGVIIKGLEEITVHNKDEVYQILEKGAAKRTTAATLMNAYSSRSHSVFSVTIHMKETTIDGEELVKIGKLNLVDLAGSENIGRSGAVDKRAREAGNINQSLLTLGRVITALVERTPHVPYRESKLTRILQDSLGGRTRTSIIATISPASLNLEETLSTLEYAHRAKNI
Description: Luminescent detection of HsEg5 ATPase activity (Kinase-Glo Plus). The format is biochemical. The method, then:
Purified HsEg5 motor fragment was activated by mixture with preformed MT polymer (Cytoskeleton, Denver, Colo.) at room temperature for 20 minutes. MT activated ATPase activity was measured using Kinase-Glo® Plus Luminescent Kinase Assay (Promega, Madison, Wis.).
For inhibitor screening, 5 μL of compounds were incubated with 20 μL of MT-activated HsEg5 such that the final concentrations for compound range from 100 μM to 5 nM (1 to 3 serial dilutions, final concentration) and final concentration for HsEg5 is 25 nM. The mixture was incubated at room temperature for 20 minutes with mild shaking. The screening assay contained 0.3% DMSO in all reaction wells. We used wells containing only DMSO as negative controls and wells without ATP as background. Addition of 15 μL of 13 μM ATP (final concentration of 5 μM) initiated the ATP hydrolysis reaction. The 40 μL-reaction was allowed to proceed at room temperature for 45 minutes before addition of 40 μL of Kinase®-Glo Plus. After 15-minute development at room temperature, the luminescent was measured.
Eg5 IC50 data was generated using both fluorescence and Luminescence detection assays as described above. Compounds I-69 were screened using automated fluorescence assay while compounds 70-83 were screened using Luminescence detection assay. (See reference “Zhang B, Senator D, Wilson C J, Ng S C. (2005) “Development of a high-throughput robotic fluorescence-based assay for HsEg5 inhibitor screening” Anal Biochem. 345:326-335″).
Background: Kinase-Glo measures the ATP left after a reaction by luminescence.

Another assay deals with NCI-H460. Kind of assay: MTS cell viability assay. It is filed as cell-based, human. The settings on record: Homo sapiens, NCI-H460, 72 h, read-out: MTS NCI H460 GI50. The gist of the method: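 GI50 values come from tetrazolium (MTS) absorbance at 490 nm, measured within two hours of SDS addition. Cells had been treated with compound for 72 hours in supplemented DMEM, then given […] PMS 7.67 mg/L for 4 hours.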

This is an account of results in patent publication US20110217300A1, “Quinazolinone Compounds and Methods of Use Thereof” (priority 2007, published 2011).

The term GI50 denotes the concentration giving 50% growth inhibition. By IC50 is commonly meant the concentration needed to halve the response being measured. Regarding `C#CC[C@H](c1nc2cc(Cl)ccc2c(=O)n1Nc1ccccc1)N(CCCN)C(=O)c1cc(F)c(F)c(F)c1F` [Compound 72, (R)—N-(3-Aminopropyl)-N-(1-(7-chloro-4-oxo-3-(phenylamino)-3,4-dihydroquinazolin-2-yl)but-3-ynyl)-2,3,4,5-tetrafluorobenzamide], the values for the GI50 in the assay with A549 and with NCI-H460 were 0.62 µM and 0.33 µM, respectively. Further, the IC50 on HsEg5 turned out to be 0.04 µM.
The like results for `C#CC[C@H](c1nc2cc(Cl)ccc2c(=O)n1Nc1ccccc1)N(CCCN)C(=O)c1ccc(C)cc1` [Compound 75, N-(3-Amino-propyl)-N—[(R)-1-(7-chloro-4-oxo-3-phenylamino-3,4-dihydro-quinazolin-2-yl)-but-3-ynyl]-4-methyl-benzamide] were, in that order, 2.8 µM, 1.5 µM and 0.09 µM.
Taken in the same sequence, the figures for `C#CC[C@H](c1nc2cccnc2c(=O)n1Nc1ccccc1)N(CCCN)C(=O)c1cccc(Cl)c1F` [Compound 83, (R)—N-(3-Aminopropyl)-3-chloro-2-fluoro-N-(1-(4-oxo-3-(phenylamino)-3,4-dihydropyrido[3,2-d]pyrimidin-2-yl)but-3-ynyl)benzamide] were greater than 100 µM, 27 µM and 6.6 µM.
The like results for `C#CC[C@H](c1nc2cc(Cl)ccc2c(=O)n1Nc1ccccc1)N(CCCN)C(=O)c1cc(F)cc(F)c1F` [Compound 81, (R)—N-(3-Aminopropyl)-N-(1-(7-chloro-4-oxo-3-(phenylamino)-3,4-dihydroquinazolin-2-yl)but-3-ynyl)-2,3,5-trifluorobenzamide] were, in that order, 0.66 µM, 0.34 µM and 0.16 µM.
